Measurements: publication PMC5053573, “Structure-Based Design of Tetrahydroisoquinoline-7-carboxamides as Selective Discoidin Domain Receptor 1 (DDR1) Inhibitors” (Journal of Medicinal Chemistry, 2016)

Columns and labels:
Assay in all cases: biochemical
PFCDPK1(P.falciparum) = molecular target: T1, PFCDPK1(P.falciparum) (Plasmodium falciparum, UniProt P62344); settings: competition binding; read-out: %Ctrl @ 1000nM
T1 construct: gene CDPK1

PKNB(M.tuberculosis) = PKNB(M.tuberculosis) (Mycobacterium tuberculosis, UniProt P9WI81); settings: read-out: %Ctrl @ 1000nM
[1] = molecular target: ABL1(F317L)-nonphosphorylated (Homo sapiens, UniProt P00519, F317L); settings: read-out: %Ctrl @ 1000nM
CDKL5 = CDKL5 (Homo sapiens, UniProt O76039); settings: read-out: %Ctrl @ 1000nM
CSNK1E = CSNK1E (Homo sapiens, UniProt P49674); settings: read-out: %Ctrl @ 1000nM
DAPK1 = DAPK1 (Homo sapiens, UniProt P53355); settings: read-out: %Ctrl @ 1000nM
ICK = molecular target: T2, ICK (Homo sapiens, UniProt Q9UPZ9); settings: read-out: %Ctrl @ 1000nM
T2 construct: gene CILK1

MAP4K2 = MAP4K2 (Homo sapiens, UniProt Q12851); settings: read-out: %Ctrl @ 1000nM

Chain of PKNB(M.tuberculosis) (P9WI81 whole entry, looked up): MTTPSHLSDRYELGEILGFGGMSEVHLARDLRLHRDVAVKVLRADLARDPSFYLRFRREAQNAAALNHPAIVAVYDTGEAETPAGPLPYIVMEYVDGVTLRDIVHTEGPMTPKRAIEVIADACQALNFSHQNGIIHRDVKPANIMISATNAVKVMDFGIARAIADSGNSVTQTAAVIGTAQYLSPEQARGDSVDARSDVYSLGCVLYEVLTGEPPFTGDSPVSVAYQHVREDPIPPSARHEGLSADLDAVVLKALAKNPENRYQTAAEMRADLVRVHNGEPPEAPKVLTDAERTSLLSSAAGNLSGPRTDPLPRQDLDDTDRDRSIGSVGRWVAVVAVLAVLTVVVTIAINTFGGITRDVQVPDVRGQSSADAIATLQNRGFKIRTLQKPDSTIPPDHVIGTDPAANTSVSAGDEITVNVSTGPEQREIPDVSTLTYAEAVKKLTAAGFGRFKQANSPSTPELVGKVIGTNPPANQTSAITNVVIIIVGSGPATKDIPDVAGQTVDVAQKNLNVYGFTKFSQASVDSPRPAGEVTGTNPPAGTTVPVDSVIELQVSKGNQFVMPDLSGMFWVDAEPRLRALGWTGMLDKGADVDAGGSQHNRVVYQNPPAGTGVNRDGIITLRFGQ
Chain of ABL1(F317L)-nonphosphorylated (P00519 whole entry F317L): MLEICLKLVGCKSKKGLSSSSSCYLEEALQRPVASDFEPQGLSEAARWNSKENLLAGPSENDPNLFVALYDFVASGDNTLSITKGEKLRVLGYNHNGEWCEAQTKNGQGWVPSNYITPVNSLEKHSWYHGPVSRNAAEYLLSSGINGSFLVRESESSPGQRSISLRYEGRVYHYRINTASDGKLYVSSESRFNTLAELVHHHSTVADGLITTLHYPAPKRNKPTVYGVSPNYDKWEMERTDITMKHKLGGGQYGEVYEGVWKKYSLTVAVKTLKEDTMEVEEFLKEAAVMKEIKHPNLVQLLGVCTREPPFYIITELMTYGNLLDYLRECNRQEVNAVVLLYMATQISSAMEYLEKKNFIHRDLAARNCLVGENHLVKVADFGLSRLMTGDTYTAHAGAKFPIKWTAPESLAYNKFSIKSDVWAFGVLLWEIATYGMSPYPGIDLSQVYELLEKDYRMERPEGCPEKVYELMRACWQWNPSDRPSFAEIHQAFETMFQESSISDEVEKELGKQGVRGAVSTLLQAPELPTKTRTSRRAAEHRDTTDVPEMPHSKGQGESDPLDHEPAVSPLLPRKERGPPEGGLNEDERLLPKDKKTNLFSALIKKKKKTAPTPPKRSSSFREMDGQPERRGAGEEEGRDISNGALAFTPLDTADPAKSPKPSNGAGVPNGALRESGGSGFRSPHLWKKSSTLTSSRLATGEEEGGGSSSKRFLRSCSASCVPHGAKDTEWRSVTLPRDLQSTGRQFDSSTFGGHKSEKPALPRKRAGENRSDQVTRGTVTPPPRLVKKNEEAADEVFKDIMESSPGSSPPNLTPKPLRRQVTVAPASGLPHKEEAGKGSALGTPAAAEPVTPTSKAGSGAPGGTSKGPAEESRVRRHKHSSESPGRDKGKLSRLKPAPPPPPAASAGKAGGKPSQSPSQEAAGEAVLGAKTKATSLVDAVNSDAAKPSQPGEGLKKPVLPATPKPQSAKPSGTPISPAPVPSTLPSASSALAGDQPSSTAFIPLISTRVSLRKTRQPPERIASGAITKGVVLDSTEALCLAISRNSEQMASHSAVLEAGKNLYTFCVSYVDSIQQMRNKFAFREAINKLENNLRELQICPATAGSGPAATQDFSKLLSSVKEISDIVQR
Chain of DAPK1 (P53355 whole entry): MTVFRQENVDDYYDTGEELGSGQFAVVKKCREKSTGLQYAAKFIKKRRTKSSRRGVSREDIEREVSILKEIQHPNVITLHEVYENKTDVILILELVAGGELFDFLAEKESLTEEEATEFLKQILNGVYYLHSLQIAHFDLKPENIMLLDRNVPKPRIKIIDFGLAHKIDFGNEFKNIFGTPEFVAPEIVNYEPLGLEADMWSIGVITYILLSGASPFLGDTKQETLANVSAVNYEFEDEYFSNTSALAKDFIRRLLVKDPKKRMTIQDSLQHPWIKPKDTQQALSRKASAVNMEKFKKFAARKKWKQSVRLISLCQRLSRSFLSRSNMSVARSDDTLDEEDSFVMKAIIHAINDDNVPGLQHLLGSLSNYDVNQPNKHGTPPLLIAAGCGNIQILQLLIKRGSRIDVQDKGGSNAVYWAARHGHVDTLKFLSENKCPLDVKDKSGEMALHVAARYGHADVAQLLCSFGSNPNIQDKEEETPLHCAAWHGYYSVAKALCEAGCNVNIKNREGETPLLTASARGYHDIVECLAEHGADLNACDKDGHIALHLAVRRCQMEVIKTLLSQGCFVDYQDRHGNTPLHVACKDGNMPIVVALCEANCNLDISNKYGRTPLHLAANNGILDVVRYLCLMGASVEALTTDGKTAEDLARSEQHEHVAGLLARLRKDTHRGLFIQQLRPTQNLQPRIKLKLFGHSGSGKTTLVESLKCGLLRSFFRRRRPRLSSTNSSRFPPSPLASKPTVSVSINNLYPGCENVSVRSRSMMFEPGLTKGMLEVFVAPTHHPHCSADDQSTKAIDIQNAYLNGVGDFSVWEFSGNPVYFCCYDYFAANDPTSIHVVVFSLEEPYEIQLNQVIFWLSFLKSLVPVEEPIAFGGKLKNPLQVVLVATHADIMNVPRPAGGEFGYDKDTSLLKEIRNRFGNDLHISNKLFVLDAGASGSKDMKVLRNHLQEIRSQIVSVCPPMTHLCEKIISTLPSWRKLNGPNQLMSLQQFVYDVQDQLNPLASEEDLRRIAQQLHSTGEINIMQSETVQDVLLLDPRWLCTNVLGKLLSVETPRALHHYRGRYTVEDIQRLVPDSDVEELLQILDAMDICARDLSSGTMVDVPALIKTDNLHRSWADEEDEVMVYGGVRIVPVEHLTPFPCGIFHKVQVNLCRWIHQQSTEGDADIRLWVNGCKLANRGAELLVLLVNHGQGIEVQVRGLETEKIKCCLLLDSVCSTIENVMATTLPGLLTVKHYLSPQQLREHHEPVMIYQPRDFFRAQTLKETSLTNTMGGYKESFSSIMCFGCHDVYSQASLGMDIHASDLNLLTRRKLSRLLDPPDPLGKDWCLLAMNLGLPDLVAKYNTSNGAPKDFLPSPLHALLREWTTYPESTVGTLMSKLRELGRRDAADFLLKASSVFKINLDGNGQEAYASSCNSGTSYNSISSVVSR
Chain of CSNK1E (P49674 whole entry): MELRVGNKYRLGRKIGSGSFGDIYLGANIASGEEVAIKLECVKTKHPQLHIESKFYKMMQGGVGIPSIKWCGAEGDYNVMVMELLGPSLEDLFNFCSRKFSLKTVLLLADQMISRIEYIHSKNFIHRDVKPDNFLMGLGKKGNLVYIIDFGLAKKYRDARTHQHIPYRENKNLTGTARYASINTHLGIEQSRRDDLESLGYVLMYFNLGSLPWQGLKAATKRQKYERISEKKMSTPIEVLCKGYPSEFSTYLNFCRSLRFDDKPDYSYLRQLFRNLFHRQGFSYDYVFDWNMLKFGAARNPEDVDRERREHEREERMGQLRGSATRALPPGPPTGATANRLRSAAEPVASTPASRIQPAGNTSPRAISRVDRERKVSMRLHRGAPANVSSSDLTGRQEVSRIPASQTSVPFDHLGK
Chain of CDKL5 (O76039 whole entry): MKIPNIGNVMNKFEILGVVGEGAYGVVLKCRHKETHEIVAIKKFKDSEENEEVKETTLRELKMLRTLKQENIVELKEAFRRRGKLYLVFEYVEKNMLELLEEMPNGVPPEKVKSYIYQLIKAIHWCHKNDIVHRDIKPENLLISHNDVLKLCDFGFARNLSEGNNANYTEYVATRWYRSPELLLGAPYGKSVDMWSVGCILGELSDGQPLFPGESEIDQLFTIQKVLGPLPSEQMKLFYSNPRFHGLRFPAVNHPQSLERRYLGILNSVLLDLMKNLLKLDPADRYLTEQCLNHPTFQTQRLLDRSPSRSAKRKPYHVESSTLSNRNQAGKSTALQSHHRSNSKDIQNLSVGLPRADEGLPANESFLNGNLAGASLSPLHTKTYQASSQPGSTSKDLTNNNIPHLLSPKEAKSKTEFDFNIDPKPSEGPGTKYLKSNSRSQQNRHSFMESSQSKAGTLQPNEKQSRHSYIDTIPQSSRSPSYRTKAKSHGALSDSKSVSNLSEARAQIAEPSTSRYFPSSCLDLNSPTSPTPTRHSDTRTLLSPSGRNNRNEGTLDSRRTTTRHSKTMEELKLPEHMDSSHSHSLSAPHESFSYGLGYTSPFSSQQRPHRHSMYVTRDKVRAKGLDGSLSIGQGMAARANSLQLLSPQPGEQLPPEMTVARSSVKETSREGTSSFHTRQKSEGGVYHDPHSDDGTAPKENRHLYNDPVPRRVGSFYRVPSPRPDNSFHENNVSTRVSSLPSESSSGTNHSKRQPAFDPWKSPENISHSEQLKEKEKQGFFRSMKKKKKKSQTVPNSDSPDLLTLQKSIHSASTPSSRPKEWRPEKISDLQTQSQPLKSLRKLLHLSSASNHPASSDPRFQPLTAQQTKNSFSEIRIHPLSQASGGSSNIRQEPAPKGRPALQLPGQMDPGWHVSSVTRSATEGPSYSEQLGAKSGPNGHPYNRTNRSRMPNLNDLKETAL
T1 sequence (P62344 whole entry): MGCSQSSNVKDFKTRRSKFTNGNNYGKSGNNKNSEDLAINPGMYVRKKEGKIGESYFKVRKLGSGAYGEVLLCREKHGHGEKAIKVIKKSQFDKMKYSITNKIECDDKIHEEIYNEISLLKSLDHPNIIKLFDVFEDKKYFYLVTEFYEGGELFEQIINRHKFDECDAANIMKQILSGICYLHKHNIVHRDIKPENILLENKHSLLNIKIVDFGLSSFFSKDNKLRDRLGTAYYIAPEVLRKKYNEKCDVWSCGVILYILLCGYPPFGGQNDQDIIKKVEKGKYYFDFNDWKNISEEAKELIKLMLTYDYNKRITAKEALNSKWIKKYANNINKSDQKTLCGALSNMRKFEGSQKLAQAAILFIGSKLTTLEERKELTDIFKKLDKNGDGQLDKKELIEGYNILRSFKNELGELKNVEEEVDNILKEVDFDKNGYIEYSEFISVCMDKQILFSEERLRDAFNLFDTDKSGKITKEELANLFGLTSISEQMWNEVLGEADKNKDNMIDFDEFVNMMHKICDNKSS

`Cc1cn(-c2cc(NC(=O)c3ccc4c(c3)CN(c3cncnc3)C[C@@H]4C)cc(C(F)(F)F)c2)cn1` [Compound 6j] was tested. Which remaining binding at 1 µM (PFCDPK1(P.falciparum)) did it give?
Its remaining binding at 1 µM is 93%.

And the remaining binding at 1 µM (PKNB(M.tuberculosis))?
The remaining binding at 1 µM was 100%.

What about the remaining activity at 1 µM [1] of the same molecule?
The remaining activity at 1 µM was 38%.

And the remaining activity at 1 µM (CDKL5)?
Its remaining activity at 1 µM is 100%.

What about the remaining activity at 1 µM (CSNK1E) of the same molecule?
The remaining activity at 1 µM was 86%.

What about the remaining activity at 1 µM (DAPK1) of the same molecule?
The remaining activity at 1 µM was 100%.

And the remaining activity at 1 µM (ICK)?
The remaining activity at 1 µM was 100%.

And the remaining activity at 1 µM (MAP4K2)?
Its remaining activity at 1 µM is 93%.
